Test results taken from patent US7772183B2 (Bristol-Myers Squibb Company, priority 2005, dated 2010).

How the values were obtained:
[1] = molecular target: T1, HCV NS3/4A protease complex, H77 strain (Hepatitis C virus genotype 1a, UniProt P27958, C1454S/C1711G); test: FRET peptide assay to monitor HCV NS3/4A proteolytic activity (H77 strain); type: biochemical
T1 construct: DNA encoding the recombinant HCV NS3/4A protease complex (amino acids 1027 to 1711) for these strains; inferred from the pET21b vector and Ni-NTA purification; made in house; host or cells: Escherichia coli BL21 (DE3), pET21b
Excerpt: (§1) HCV NS3 protease complexes, derived from the BMS strain, H77 strain or J4L6S strain, were generated, as described below. These purified recombinant proteins were generated for use in a homogeneous assay (see below) to provide an indication of how effective compounds of the present disclosure would be in inhibiting HCV NS3 proteolytic activity.
(§2) Serum from an HCV-infected patient was obtained from Dr. T. Wright, San Francisco Hospital. An engineered full-length cDNA (compliment deoxyribonucleic acid) template of the HCV genome (BMS strain) was constructed from DNA fragments obtained by reverse transcription-PCR (RT-PCR) of serum RNA (ribonucleic acid) and using primers selected on the basis of homology between other genotype 1a strains. From the determination of the entire genome sequence, a genotype 1a was assigned to the HCV isolate according to the classification of Simmonds et al. (See P Simmonds, K A Rose, S Graham, S W Chan, F McOmish, B C Dow, E A Follett, P L Yap and H Marsden, J. Clin. Microbiol., 31(6), 1493-1503 (1993)). […]

[2] = molecular target: T2, HCV NS3/4A protease complex, J4L6S strain (Hepatitis C virus genotype 1b, UniProt O92972, C1454S/C1711G); test: FRET peptide assay to monitor HCV NS3/4A proteolytic activity (J4L6S strain); type: biochemical
T2 construct: DNA encoding the recombinant HCV NS3/4A protease complex (amino acids 1027 to 1711) for these strains; inferred from the pET21b vector and Ni-NTA purification; made in house; host or cells: Escherichia coli BL21 (DE3), pET21b
Excerpt: as §1, §2

T2 sequence (O92972 1027-1711 C1454S/C1711G, one chain of several): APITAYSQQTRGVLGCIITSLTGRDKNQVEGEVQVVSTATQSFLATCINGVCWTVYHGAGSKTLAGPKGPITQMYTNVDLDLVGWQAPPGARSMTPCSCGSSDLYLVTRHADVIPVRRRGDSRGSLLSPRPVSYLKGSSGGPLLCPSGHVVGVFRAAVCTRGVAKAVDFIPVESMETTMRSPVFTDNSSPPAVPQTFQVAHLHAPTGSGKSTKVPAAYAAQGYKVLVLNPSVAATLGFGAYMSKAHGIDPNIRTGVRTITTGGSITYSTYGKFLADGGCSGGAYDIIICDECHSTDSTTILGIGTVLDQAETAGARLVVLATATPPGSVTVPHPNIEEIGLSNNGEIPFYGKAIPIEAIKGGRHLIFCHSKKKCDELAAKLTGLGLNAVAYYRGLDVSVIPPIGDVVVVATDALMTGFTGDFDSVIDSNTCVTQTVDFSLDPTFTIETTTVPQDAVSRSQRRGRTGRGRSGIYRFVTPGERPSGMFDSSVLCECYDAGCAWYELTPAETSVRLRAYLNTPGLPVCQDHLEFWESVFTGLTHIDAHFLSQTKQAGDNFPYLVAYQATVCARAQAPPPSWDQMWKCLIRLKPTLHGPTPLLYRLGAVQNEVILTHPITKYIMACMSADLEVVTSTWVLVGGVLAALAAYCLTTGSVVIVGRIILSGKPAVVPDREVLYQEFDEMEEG
T1 sequence (P27958 1027-1711 C1454S/C1711G, one chain of several): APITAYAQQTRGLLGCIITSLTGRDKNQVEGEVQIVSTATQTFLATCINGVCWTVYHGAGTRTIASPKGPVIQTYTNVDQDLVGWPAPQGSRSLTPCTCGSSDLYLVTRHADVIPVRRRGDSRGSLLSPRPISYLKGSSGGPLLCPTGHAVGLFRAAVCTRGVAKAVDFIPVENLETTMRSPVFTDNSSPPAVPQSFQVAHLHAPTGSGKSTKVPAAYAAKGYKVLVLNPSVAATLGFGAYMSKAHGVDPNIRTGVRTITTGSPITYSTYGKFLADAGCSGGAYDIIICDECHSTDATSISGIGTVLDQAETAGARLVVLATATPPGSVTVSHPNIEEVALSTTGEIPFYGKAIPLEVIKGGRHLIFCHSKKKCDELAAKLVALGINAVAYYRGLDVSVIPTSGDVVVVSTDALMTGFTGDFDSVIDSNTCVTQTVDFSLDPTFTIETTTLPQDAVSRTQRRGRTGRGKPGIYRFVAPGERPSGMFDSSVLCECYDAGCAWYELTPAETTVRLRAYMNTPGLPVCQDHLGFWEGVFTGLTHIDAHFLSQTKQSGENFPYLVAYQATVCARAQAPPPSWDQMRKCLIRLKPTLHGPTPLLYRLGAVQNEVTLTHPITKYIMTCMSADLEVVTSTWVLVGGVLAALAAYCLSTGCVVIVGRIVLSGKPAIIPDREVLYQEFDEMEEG

CC(C)(C)OC(=O)N[C@H]1CCCCC/C=C\[C@@H]2C[C@@]2(C(=O)NS(=O)(=O)C2CC2)NC(=O)[C@@H]2C[C@@H](OC(=O)c3ccc(C#N)cc3)CN2C1=O [Compound 26, 18-(4-cyanobenzoyloxy)-14-tert-butoxycarbonylamino-4-cyclopropylsulfonylaminocarbonyl-2,15-dioxo-3,16-diazatricyclo-[14.3.0.0^4,6]-nonadec-7-ene]
IC50 [1]: 530 pM | IC50 [2]: 230 pM
